Reference: ChEMBL document CHEMBL4396975, “Sodium Channel Modulators and Their Method of Use” (ACS Med Chem Lett, 2019)
pIC50: −log10 of the molar value.

The compounds below were run against Sodium channel protein type 9 subunit alpha (Homo sapiens, UniProt Q15858) (assay: Inhibition of human Nav1.7 expressed in HEK293 cells by automated electrophysiological patch clamp assay).
Format: cell-based

Sequence of Sodium channel protein type 9 subunit alpha (Q15858 whole entry): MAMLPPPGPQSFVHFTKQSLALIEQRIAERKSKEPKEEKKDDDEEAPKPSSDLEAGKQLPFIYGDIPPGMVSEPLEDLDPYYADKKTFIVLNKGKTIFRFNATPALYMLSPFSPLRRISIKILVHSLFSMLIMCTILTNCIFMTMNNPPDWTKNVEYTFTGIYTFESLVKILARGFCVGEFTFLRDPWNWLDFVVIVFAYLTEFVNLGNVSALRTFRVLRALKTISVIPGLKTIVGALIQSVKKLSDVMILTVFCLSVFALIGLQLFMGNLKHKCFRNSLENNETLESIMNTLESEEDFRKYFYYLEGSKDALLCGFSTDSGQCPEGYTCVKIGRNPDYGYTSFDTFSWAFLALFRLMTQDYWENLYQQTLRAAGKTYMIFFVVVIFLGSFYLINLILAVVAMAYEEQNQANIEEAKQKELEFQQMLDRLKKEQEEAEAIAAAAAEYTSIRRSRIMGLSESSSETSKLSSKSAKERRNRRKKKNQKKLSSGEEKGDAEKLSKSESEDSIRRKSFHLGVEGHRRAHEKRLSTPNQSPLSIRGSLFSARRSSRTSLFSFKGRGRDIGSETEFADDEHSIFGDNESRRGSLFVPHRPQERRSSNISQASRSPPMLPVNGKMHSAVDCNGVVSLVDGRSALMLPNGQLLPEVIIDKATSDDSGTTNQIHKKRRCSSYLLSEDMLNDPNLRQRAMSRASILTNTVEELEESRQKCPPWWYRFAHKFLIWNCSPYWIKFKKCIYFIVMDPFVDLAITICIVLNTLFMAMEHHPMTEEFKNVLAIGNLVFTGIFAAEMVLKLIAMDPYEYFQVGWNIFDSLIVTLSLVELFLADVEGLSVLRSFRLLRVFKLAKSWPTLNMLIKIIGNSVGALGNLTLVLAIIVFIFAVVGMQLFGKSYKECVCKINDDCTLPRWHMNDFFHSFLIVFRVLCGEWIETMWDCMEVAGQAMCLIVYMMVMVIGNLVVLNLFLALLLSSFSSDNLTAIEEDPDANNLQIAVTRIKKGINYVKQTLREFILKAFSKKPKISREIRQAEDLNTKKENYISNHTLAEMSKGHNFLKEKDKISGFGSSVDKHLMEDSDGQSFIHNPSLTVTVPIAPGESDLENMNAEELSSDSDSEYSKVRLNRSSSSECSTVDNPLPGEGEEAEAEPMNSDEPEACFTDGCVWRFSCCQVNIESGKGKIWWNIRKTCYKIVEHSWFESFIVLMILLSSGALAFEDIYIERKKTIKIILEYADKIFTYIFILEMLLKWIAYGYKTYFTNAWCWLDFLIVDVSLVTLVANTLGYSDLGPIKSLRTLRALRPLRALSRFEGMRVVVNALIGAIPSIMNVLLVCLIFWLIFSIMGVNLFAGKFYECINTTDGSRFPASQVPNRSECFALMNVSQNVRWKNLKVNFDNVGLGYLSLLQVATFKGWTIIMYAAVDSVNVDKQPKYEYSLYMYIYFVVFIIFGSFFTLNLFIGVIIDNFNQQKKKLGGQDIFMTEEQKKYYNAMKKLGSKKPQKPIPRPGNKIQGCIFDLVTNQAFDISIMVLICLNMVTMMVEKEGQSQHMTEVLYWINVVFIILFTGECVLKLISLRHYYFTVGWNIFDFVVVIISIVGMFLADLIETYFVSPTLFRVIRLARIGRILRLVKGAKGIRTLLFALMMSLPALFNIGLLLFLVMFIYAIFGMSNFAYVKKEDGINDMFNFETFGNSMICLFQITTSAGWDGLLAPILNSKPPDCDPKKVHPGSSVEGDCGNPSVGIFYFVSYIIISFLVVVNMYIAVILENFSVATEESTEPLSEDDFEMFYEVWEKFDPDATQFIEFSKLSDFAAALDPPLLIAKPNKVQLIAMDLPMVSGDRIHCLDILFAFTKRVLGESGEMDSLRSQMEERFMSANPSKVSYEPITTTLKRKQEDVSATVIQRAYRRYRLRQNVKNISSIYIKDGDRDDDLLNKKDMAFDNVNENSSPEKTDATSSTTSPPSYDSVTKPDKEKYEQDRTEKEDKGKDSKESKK

| pIC50 | SMILES |
| --- | --- |
| 6.24 | NC(=O)[C@@H]1CC[C@H](c2ccc(Oc3nnnn3-c3cc(F)ccc3OC(F)(F)F)cc2)N1 |
| 6.14 | Cc1ccc(Cl)cc1-n1nnnc1Oc1ccc([C@H]2CC[C@@H](C(N)=O)N2)cc1 |
| 5.96 | NC(=O)[C@@H]1CC[C@H](c2ccc(Oc3nnnn3-c3ccccc3OC(F)(F)F)cc2)N1 |
| 6.05 | Cc1cccc(C)c1-n1nnnc1Oc1ccc([C@H]2CC[C@@H](C(N)=O)N2)cc1 |
| 5.74 | CN1[C@@H](c2ccc(Oc3nnnn3-c3ccccc3C(F)(F)F)cc2)CC[C@H]1C(N)=O |
| 5.74 | CN(C)C(=O)[C@@H]1CC[C@H](c2ccc(Oc3nnnn3-c3ccccc3OC(F)(F)F)cc2)N1 |
| 6.17 | NC(=O)[C@@H]1CC[C@H](c2ccc(Oc3nnnn3-c3cc(Cl)ccc3OC(F)(F)F)cc2)N1 |
| 5.92 | Cc1cc(C(F)(F)F)ccc1-n1nnnc1Oc1ccc([C@H]2CC[C@@H](C(N)=O)N2)cc1 |
| 5.96 | COc1ccc(C)c(-n2nnnc2Oc2ccc([C@H]3CC[C@@H](C(N)=O)N3)cc2)c1 |
| 5.82 | CC(C)(C)c1ccccc1-n1nnnc1Oc1ccc([C@H]2CC[C@@H](C(N)=O)N2)cc1 |
